Measurements reported in the NIST ThermoML archive (doi:10.1016/j.jct.2017.04.003).
Numbers after ± are expanded uncertainties.

- Normal melting temperature (Crystal 1, DTA): 666.6 ± 10 °C
- Triple point temperature (Crystal 2, DSC): 756.8 ± 10 K
SMILES: [Na+].[Na+].[O-][O-] [sodium peroxide]
